Assay results taken from the CheMixHub viscosity set.

Experiment: xn = mol fraction of the nth substance listed

CCCCCCCCCCCCCCCCC + CCCCCCCCCCO
100 kPa, x1 = 0.076
Details | viscosity [mPa·s]
298.2 K | 10.21
308.2 K | 6.94
318.2 K | 4.87

CC[N+](CC)(CC)CC.Cc1ccc(S(=O)(=O)[O-])cc1 + OCCO
101 kPa, x1 = 0.2
Details | viscosity [mPa·s]
298.15 K | 51.2
303.15 K | 40.8
308.15 K | 32.8
313.15 K | 24.4
318.15 K | 22.2
323.15 K | 17.4

O=C(O)CBr + [Br-].[Br-].[Br-].[Br-].[Sn+4]
viscosity [mPa·s], 101 kPa
Details | x2 = 0.0895 | x2 = 0.2636 | x2 = 0.4794 | x2 = 0.7268 | x2 = 0.9042
313.15 K | 3.74 | 3.07 | 2.48 | 2.04 | 1.88
323.15 K | 3.12 | 2.58 | 2.15 | 1.78 | 1.65

Cc1ccccc1 + CCCCCCC
298.15 K, 101 kPa
Details | viscosity [mPa·s]
x2 = 0.4771 | 0.4775
x2 = 0.4859 | 0.476
x2 = 0.4953 | 0.474
x2 = 0.4983 | 0.4735
x2 = 0.4996 | 0.473
x2 = 0.5045 | 0.472
x2 = 0.5106 | 0.471
x2 = 0.5179 | 0.47
x2 = 0.5212 | 0.469
x2 = 0.5328 | 0.467
x2 = 0.5408 | 0.4655
x2 = 0.55 | 0.464
x2 = 0.561 | 0.4615
x2 = 0.579 | 0.458
x2 = 0.603 | 0.4535

COc1ccccc1 + CCCCCCCCO
viscosity [mPa·s], 101.33 kPa
Details | x1 = 0.1001 | x1 = 0.2 | x1 = 0.3002 | x1 = 0.3998 | x1 = 0.5 | x1 = 0.6002 | x1 = 0.7001 | x1 = 0.8002 | x1 = 0.9
303.15 K | 4.86 | 3.795 | 3.074 | 2.432 | 1.966 | 1.576 | 1.217 | 1.108 | 0.968
313.15 K | 3.589 | 2.872 | 2.342 | 1.922 | 1.561 | 1.28 | 1.014 | 0.934 | 0.831
323.15 K | 2.702 | 2.163 | 1.863 | 1.547 | 1.288 | 1.054 | 0.843 | 0.789 | 0.725

COc1ccccc1 + CS(C)=O
viscosity [mPa·s], 101.3 kPa
Details | x2 = 0.1034 | x2 = 0.203 | x2 = 0.3049 | x2 = 0.4058 | x2 = 0.5049 | x2 = 0.6063 | x2 = 0.7044 | x2 = 0.8039 | x2 = 0.9011
298.15 K | 1.049 | 1.113 | 1.184 | 1.259 | 1.342 | 1.443 | 1.544 | 1.666 | 1.808
303.15 K | 0.968 | 1.024 | 1.104 | – | 1.229 | 1.32 | 1.408 | 1.517 | 1.641
308.15 K | 0.899 | 0.949 | 1.008 | 1.068 | 1.133 | 1.214 | 1.292 | 1.388 | 1.5

C1CCOC1 + CCO
Details | viscosity [mPa·s]
298.15 K, 101 kPa, x1 = 0.4 | 0.6728

CCCc1ccccc1 + C1COCCO1
303.15 K, 101.3 kPa
Details | viscosity [mPa·s]
x2 = 0.1061 | 0.7763
x2 = 0.1984 | 0.8007
x2 = 0.2968 | 0.8298
x2 = 0.399 | 0.8589
x2 = 0.4945 | 0.8922
x2 = 0.5985 | 0.9278
x2 = 0.7003 | 0.9648
x2 = 0.8026 | 1.005
x2 = 0.9025 | 1.045

COc1ccccc1 + CC(C)(C)O
viscosity [mPa·s], 100.33 kPa
Details | x1 = 0.1 | x1 = 0.1999 | x1 = 0.3002 | x1 = 0.4001 | x1 = 0.5 | x1 = 0.6001 | x1 = 0.6998 | x1 = 0.8001 | x1 = 0.9001
303.15 K | 2.101 | 1.758 | 1.484 | 1.272 | 1.143 | 1.011 | 0.954 | 0.928 | 0.919
313.15 K | 1.585 | 1.29 | 1.099 | 1.002 | 0.915 | 0.853 | 0.825 | 0.808 | 0.798
323.15 K | 1.222 | 1.022 | 0.887 | 0.815 | 0.773 | 0.743 | 0.722 | 0.711 | 0.701

CC(C)=O + CCO
298.15 K, 101 kPa
Details | viscosity [mPa·s]
x1 = 0.1868 | 0.7168
x1 = 0.2337 | 0.651
x1 = 0.3003 | 0.5795
x1 = 0.3162 | 0.5636
x1 = 0.378 | 0.5162
x1 = 0.3887 | 0.5028
x1 = 0.4579 | 0.462
x1 = 0.6529 | 0.3836

O=[N+]([O-])[O-].O=[N+]([O-])[O-].O=[N+]([O-])[O-].[Ce+3] + O
viscosity [mPa·s], 101.3 kPa
Details | x1 = 0.009125 | x1 = 0.01824 | x1 = 0.02724 | x1 = 0.03472 | x1 = 0.05339 | x1 = 0.06671 | x1 = 0.0744
293.15 K | 1.312 | 1.718 | 2.423 | 3.281 | 6.899 | 13.02 | 19.48
298.15 K | 1.174 | 1.529 | 2.169 | 2.911 | 5.937 | 10.99 | 16.06
308.15 K | 0.9509 | 1.249 | 1.734 | 2.299 | 4.599 | 8.055 | 11.34

COc1ccccc1 + C1COCCO1
viscosity [mPa·s]
Details | 293.15 K | 298.15 K | 303.15 K | 308.15 K | 313.15 K | 323.15 K
101 kPa, x1 = 0.0973 | – | 1.154 | 1.063 | 0.9679 | 0.9021 | –
101 kPa, x1 = 0.1993 | – | 1.136 | 1.04 | 0.9633 | 0.8956 | –
101 kPa, x1 = 0.3019 | – | 1.105 | 1.021 | 0.9435 | 0.8729 | –
101 kPa, x1 = 0.4003 | – | 1.094 | 1.011 | 0.9342 | 0.8659 | –
101 kPa, x1 = 0.4999 | – | – | – | 0.9209 | 0.854 | –
101 kPa, x1 = 0.5976 | – | 1.06 | 0.983 | 0.9122 | 0.8465 | –
101 kPa, x1 = 0.7024 | – | – | 0.9723 | 0.9001 | 0.8338 | –
101 kPa, x1 = 0.7992 | – | – | 0.9564 | 0.8957 | 0.8226 | –
101 kPa, x1 = 0.9003 | – | 1.019 | 0.9451 | 0.8765 | 0.8129 | –
101.3 kPa, x1 = 0.1191 | 1.251 | – | 1.062 | – | 0.916 | 0.799
101.3 kPa, x1 = 0.2422 | 1.218 | – | 1.037 | – | 0.898 | 0.785
101.3 kPa, x1 = 0.3646 | 1.223 | – | 1.014 | – | 0.879 | 0.77
101.3 kPa, x1 = 0.4786 | 1.195 | – | 1.018 | – | 0.882 | 0.76
101.3 kPa, x1 = 0.6021 | 1.16 | – | 0.981 | – | 0.853 | 0.749
101.3 kPa, x1 = 0.7164 | 1.125 | – | 0.965 | – | 0.84 | 0.738
101.3 kPa, x1 = 0.8783 | 1.099 | – | 0.943 | – | 0.822 | 0.724
